Measured values from patent US20250213608A1, “VANADYL SULFATE COMPOSITIONS AND METHODS OF USE THEREFOR FOR THE TREATEMENT AND PREVENTION OF AGING-RELATED DISEASES AND CANCER” (The University of Chicago, priority 2022, published 2025).
“Also recorded” adds a separate entry of the source.

Tests used:
[1] = system: human fibroblast BJ cells with therapy-induced senescence by doxorubicin; assay: Screen for senolytic effect in cells with therapy-induced senescence; type: cell-based; settings: senescent BJ cells versus control uninduced cells; FIG. 1A, 2A
Method: (§1) Experiments were conducted during development of embodiments herein to screen for diet-derived dietary substances, natural products, blood chemicals, etc. that provide senolytic activity with reduced “off-target” toxic side effects. A library of diet-derived blood chemicals was screened to identify compounds that selectively induce cell death in human fibroblast BJ cells with therapy-induced senescence by doxorubicin (FIG. 1A). The top candidates identified were tested in a second screen (FIG. 1B) using human fibroblast HCA2 cells with senescence induced by Nutlin3a (p53 activator), RO3306 (CDK1 inhibitor), and BI2436 (PLK1 inhibitor).
(§2) Experiments were conducted during development of embodiments herein to screen for natural products that provide senolytic activity. A library of diet-derived blood chemicals was screened to identify compounds that selectively induce cell death in human fibroblast BJ cells with therapy-induced senescence by doxorubicin (FIG. 1A). The top candidates identified were tested in a second screen (FIG. 1B) using human fibroblast HCA2 cells with senescence induced by Nutlin3a (p53 activator), RO3306 (CDK1 inhibitor), and BI2436 (PLK1 inhibitor). […] Temporal mechanistic studies of VS were also conducted (FIG. 8A-B).

[2] = system: bleomycin-induced lung fibrosis; assay: Bleomycin-induced lung fibrosis; type: in vivo; settings: FIG. 4A-D
[3] = system: senescent cells; assay: Rescue of VS-induced cell death by NAC; type: cell-based; settings: FIG. 7A-C
Method: as §2

[4] = system: animal models; settings: cited from earlier work
[5] = system: aged mice; assay: Aging-related phenotypes in aged mice after oral gavage; type: in vivo
Excerpt: In some embodiments, provided herein is the administration of VS as a pharmaceutical or nutraceutical composition to treat or prevent pathogenic senescence-related diseases (e.g., liver and lung fibrosis, atherosclerosis, diabetes, osteoarthritis, etc.). In some embodiments, provided herein is the administration of VS as a pharmaceutical or nutraceutical composition to treat or prevent various diverse human cancers, alone or in combination with anti-cancer therapies that result in therapy-induced senescence.

[6] = system: apolipoprotein E-deficient (ApoE-/-) mice; assay: Atherosclerosis model in ApoE-/- mice; type: in vivo
Excerpt: Atherosclerosis-prone apolipoprotein E-deficient (ApoE^−/−) mice were used that display poor lipoprotein clearance with subsequent accumulation of cholesterol ester-enriched particles in the blood, which promote the development of atherosclerotic plaques. Compared to wild type control mice with no disease (WT-ND), the ApoE−/− mice developed atherosclerosis-like disease with accumulation of cholesterol that was stained with Sudan IV showing orange-red color (FIG. 9A, left).

[7] = system: human fibroblast HCA2 cells with senescence induced by Nutlin3a, RO3306 and BI2436; assay: Second screen for senolytic effect in induced-senescent HCA2 cells; type: cell-based; settings: senescent HCA2 cells versus control uninduced cells; FIG. 1B, 2B
Method: as §1, §2

[8] = system: CCl4-induced liver fibrosis; assay: CCl4-induced liver fibrosis; type: in vivo; settings: FIG. 5A-D
[9] = system: A549 xenograft; assay: A549 xenograft model combined with senescence induction; type: in vivo; settings: FIG. 6A-B
[10] = system: type 2 diabetes; settings: cited from earlier work
[11] = aged mice, oral gavage, kidney tissues

## O=S(=O)([O-])[O-].[O]=[V+2] [VS, vanadyl sulfate]
[1]
  cell death in senescent BJ cells: selectively triggers cell death; also recorded: selectively induced cell death
[2]
  therapeutic efficacy in bleomycin-induced lung fibrosis: shows therapeutic efficacy
[3]
  rescue of VS-induced cell death by NAC: can be rescued by NAC
[4]
  hyperglycemia: reduce
  insulin resistance: reduce
[5]; FIG. 3A-F
  aging / senescent cells in vivo: ameliorates aging by eliminating senescent cells
[5]; aged mice, oral gavage
  aging-related phenotypes: improved
  serum urea levels: reducing
[5]; [11]
  gene expression level of CDK inhibitor p16INK4a: reducing
  gene expression level of inflammatory cytokine IL-6: reducing
[6]; ApoE-/- mice, Sudan IV staining, quantitation, FIG. 9A
  accumulation of cholesterol in atherosclerotic plaques: reduced
[6]; ApoE-/- mice, FIG. 9B
  overall total cholesterol level: reduced
[6]; FIG. 9A-B
  therapeutic efficacy in atherosclerosis model: provides therapeutic efficacy
[7]
  cell death in senescent HCA2 cells: selectively triggers cell death; also recorded: selectively induced cell death
[8]
  therapeutic efficacy in CCl4-induced liver fibrosis: shows therapeutic efficacy
[9]
  tumor growth: suppresses tumor growth
[10]
  hepatic and muscle insulin sensitivity: improve
